Measured values reported in patent US20110152166A1, “METHOD OF MODULATION OF PROTEIN PHOSPHORYLATION-DEPENDENT CONFORMATIONAL TRANSITIONS WITH LOW MOLECULAR WEIGHT COMPOUNDS” (priority 2006, published 2011).
Ends that are not written are not given here.

How the values were obtained:
[1] = molecular target: T1, PDK1 50-360 [CT-PIF] (Homo sapiens, UniProt O15530); assay: PDK1 activity assay with T308tide; type: biochemical; details: for AC50: PDK1 50-360 [CT-PIF]; for effect on specific activity of chimera (in words): PDK1 50-360[CT-PIF] chimera
T1 construct: comprising residues 50-360 joined to the last 48 aminoacids from PRK2; His-tag (pFastbac-HT) (N); made in house; host or cells: insect cells (pFastbac-HT baculovirus system); the other entry of the earlier key: PKN2 (Q16513, Serine/threonine-protein kinase N2)
T1 sequence (O15530 with tags, fused parts or gaps): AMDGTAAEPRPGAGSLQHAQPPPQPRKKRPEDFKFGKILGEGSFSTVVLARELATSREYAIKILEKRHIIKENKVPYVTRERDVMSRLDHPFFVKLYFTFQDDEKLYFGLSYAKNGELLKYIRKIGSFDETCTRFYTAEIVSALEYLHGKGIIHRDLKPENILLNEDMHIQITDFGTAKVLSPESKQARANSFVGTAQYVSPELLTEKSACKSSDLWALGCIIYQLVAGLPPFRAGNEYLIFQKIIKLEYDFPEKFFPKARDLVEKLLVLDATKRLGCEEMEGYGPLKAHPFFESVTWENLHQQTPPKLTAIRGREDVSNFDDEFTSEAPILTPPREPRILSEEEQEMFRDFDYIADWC
Excerpt: We generated a PDK1 chimera consisting of the catalytic domain of PDK1 comprising residues 50-360 joined to the last 48 aminoacids from PRK2, which include the sequence of PIFtide (PDK1 50-360[CT-PIF]). PIFtide binds with high affinity to PDK1. Therefore, we expected that the HM/PIF-pocket in this protein would be strongly bound to the C-terminus of PRK2. In this scenario, the specific activity of the PDK1 50-360[CT-PIF] chimera would not be affected by compounds which otherwise would bind to the PDK1 50-360 HM/PIF-pocket. The PDK1 50-360[CT-PIF] chimera had 1.5-fold higher specific activity than the PDK1 catalytic domain alone. Furthermore, the activity of PDK1 50-360[CT-PIF] chimera was not affected by PIFtide at concentrations that activated the PDK1 50-360 protein (FIG. 2G). Finally, PDK1 50-360[CT-PIF] specific activity was not affected by compound 1, further supporting the notion that PIFtide and compound 1 targeted an overlapping site in the catalytic domain of PDK1.
For the spectrofluorometer assay, the PDK1 protein used was the catalytic domain of PDK1 (50-359) produced in SF9 insect cells using baculovirus expression technology (Invitrogen). PDK1 was cloned in pFastbac-HT plasmid (NcoI-KpnI sites) taking advantage of an endogenous NcoI site in the PDK1 DNA sequence. The codon corresponding to aminoacid 360 was replaced by a stop codon. […]
(§1) Protein kinase activity tests were performed essentially as previously described (Balendran et al., 2000; Biondi et al., 2000; Biondi et al., 2001). Substrates used were either MBP (for PKCζ or polypeptides (Crosstide for PKB, S6K, SGK and PRK2; T308tide for PDK1, and Kemptide for PKA). PKA (Sigma) was measured in the presence of 100 μM cAMP. Alternatively, assays were performed in a 96 well format, aliquots spotted on p81 phosphocellulose papers (Whatmann), washed in 0.01% phosphoric acid, dried, and then exposed and analysed using Phospholmager technology (Storm, Molecular Dynamics). Activity measurements were performed in duplicates with less than 10% difference between duplicate pairs. Experiments were repeated at least twice, although most of the experiments were repeated multiple times, with similar results.
PDK1 activity assay was performed in a 20 μl mix containing 50 mM Tris-HCl pH 7.5, 0.05 mg/ml BSA, 0.1% β-mercaptoethanol, 10 mM MgCl2, 100 μM [γ^32P]ATP (5-50 cpm/pmol), 0.003% Brij, 150 ng PDK1, and T308tide (from 0.05 to 1 mM). PDK1 specific activity was approximately 5 U/mg (when measured at 1 mM T308tide). […]
PDK1 activity was measured at room temperature using a polypeptide substrate derived from the activation loop phosphorylation site of PKB, T308tide (0.1 mM). […]

[2] = molecular target: T2, PKCζ (Homo sapiens, UniProt Q05513); assay: AGC kinase panel activity assay (MBP); type: biochemical; details: for PKCξ (%) activity: 1% DMSO = 100%
T2 construct: deuteron uptake in a full-length AGC kinase; For this analysis we chose PKCζ; made in house; host or cells: HEK293
T2 sequence (Q05513 1-592): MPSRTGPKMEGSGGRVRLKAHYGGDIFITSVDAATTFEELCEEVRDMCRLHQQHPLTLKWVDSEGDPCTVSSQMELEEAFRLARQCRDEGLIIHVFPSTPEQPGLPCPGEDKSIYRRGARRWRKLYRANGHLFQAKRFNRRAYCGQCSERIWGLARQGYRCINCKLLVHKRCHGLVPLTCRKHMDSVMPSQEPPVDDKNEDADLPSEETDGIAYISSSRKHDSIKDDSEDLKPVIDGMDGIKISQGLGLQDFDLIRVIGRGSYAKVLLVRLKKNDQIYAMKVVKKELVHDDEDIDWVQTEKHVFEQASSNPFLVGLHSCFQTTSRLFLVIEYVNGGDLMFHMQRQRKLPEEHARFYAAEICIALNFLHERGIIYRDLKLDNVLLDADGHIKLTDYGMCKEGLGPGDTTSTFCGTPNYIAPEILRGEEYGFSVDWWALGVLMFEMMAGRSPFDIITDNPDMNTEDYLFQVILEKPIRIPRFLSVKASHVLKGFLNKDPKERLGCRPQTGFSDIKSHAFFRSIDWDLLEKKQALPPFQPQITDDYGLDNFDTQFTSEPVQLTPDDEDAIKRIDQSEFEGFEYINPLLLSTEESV
Experimental: as §1
Activity assays for each kinase were performed as described in Materials and Methods in the presence of 1% DMSO (100%). Except PKA, all protein kinases were produced as a GST-fusion. S6K1, PKBα, SGK mutants used were S6K1-T2-[Thr412Glu], PKBa[Ser473Asp] and ΔN-SGK[Ser422Asp].

| Molecule | AC50 [1] | effect on specific activity of chimera (in words) [1] | effect on PKCζ activity (in words) ([2]; 20 μM) | PKCξ (%) activity ([2]; 20 μM compound) [%] | PKCξ (%) activity ([2]; 200 μM compound) [%] | inhibition of PKCζ (in words) ([2]; panel, concentration not given) |
| --- | --- | --- | --- | --- | --- | --- |
| O=C(O)CSC(CC(=O)c1ccc(Cl)cc1)c1ccccc1 (stereo not shown) [Compound 1] | No Effect | not affected | no significant effect | 94 | 21 | inhibited PKCζ |
| COC(=O)CSC(CC(=O)c1ccc(Cl)cc1)c1ccccc1 (stereo not shown) [Compound 2] |  |  |  | 104 | 86 |  |
| REPRILSEEEQEMFRDFDYIADWC [PIFtide, reference compound] | No Effect | not affected |  |  |  |  |
